{
  "source": "patent US12644142B2",
  "about": "“Sugar composition containing cyclic tetrasaccharide, use thereof, and production method therefor” (NAGASE VIITA CO., LTD., priority 2019, dated 2026)",
  "key": {"[1]": {"experiment": "Preliminary evaluation of digestion and absorption after oral ingestion", "format": "in vivo", "conditions": "orally ingested into a human body"}, "[2]": {"conditions": "purity of 98% by mass, aqueous solution with a solid concentration of 50% by mass; cited from earlier work"}},
  "data": [
    {"smiles": "OC[C@H]1O[C@@H]2OC[C@H]3O[C@H](O[C@@H]4[C@@H](O)[C@@H](OC[C@H]5O[C@H](O[C@H]([C@H]2O)[C@@H]1O)[C@H](O)[C@@H](O)[C@@H]5O)O[C@H](CO)[C@H]4O)[C@H](O)[C@@H](O)[C@@H]3O", "note": "[cyclic tetrasaccharide, cyclo{→6)-α-D-glucopyranosyl-(1→3)-α-D-glucopyranosyl-(1→6)-α-D-glucopyranosyl-(1→3)-α-D-glucopyranosyl-(1→}]", "values": [
      {"measurement": "digestion and absorption after oral ingestion", "setting": "[1]", "value": "reaches the large intestine without being digested or absorbed"},
      {"measurement": "precipitation of crystals", "setting": "[2]", "value": "easily causes precipitation of crystals"}
    ]}
  ]
}
